Molecular target: ATP-dependent translocase ABCB1 (Homo sapiens, UniProt P08183)
Experiment: TP_TRANSPORTER: increase in Rhodamine 123 intracellular accumulation (R123: 10 uM, Tamolarizine: 10 uM) in K562/DX cellsR cells, FACScan
Assay type: functional, cell-based
Details: k562/dxr

Chain of ATP-dependent translocase ABCB1 (P08183 whole entry): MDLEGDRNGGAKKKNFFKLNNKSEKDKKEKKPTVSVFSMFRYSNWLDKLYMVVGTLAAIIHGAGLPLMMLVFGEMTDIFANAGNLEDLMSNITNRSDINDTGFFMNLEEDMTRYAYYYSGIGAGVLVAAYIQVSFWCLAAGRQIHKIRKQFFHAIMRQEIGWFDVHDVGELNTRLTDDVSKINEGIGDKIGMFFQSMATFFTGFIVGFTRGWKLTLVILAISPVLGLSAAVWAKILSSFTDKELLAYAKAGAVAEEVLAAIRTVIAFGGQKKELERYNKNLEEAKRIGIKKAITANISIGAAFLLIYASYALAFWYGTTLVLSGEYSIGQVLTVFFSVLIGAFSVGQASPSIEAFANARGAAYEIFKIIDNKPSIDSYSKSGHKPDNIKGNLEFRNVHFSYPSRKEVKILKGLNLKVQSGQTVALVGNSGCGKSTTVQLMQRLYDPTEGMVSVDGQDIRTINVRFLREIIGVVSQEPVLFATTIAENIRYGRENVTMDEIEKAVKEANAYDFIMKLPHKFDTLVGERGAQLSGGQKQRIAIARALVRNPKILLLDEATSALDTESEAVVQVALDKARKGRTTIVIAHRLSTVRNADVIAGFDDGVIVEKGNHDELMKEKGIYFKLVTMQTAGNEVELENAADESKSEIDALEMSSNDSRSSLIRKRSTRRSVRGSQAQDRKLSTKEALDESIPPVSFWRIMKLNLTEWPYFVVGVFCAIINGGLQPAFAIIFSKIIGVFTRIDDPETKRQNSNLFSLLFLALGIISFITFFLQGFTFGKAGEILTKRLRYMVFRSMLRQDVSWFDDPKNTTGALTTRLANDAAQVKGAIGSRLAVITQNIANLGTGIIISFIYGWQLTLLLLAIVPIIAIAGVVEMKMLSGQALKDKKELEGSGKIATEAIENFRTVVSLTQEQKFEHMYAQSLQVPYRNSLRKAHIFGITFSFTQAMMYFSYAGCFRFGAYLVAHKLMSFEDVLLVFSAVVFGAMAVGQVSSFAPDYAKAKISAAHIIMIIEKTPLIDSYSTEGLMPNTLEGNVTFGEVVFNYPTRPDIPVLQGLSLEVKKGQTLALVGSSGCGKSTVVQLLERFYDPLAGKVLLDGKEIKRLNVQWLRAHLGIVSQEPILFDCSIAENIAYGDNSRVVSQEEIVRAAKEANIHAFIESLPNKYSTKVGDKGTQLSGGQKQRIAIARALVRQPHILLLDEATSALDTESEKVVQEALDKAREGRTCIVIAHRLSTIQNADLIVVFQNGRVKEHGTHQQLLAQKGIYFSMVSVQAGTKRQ

COc1ccc(C(O)CN2CCN(C(c3ccccc3)c3ccccc3)CC2)cc1OC (stereo unspecified) [TAMOLARIZINE]
Activity: inhibitor [+]

From ChEMBL document CHEMBL2074184, “Reversal of multidrug resistance in human leukemia K562 by tamolarizine, a novel calcium antagonist” (Jpn J Pharmacol, 2000)
